Like-named read-outs stand apart in the source and are kept apart here. Ends that are not written are not given here.
Legend:
[1] = target: T1, DPPIV (Homo sapiens, UniProt P27487); experiment: In vitro plasma stability of GLP1CM peptides (kinetic test method); details: 10% human plasma; for remaining at 9 h, 1 μM: human, pH 7.8; for DT80: time needed to degrade active GLP-1 to 80% of the 0 h value, 1 μM peptide
Target sequence in this assay (P27487 39-766 limits assumed): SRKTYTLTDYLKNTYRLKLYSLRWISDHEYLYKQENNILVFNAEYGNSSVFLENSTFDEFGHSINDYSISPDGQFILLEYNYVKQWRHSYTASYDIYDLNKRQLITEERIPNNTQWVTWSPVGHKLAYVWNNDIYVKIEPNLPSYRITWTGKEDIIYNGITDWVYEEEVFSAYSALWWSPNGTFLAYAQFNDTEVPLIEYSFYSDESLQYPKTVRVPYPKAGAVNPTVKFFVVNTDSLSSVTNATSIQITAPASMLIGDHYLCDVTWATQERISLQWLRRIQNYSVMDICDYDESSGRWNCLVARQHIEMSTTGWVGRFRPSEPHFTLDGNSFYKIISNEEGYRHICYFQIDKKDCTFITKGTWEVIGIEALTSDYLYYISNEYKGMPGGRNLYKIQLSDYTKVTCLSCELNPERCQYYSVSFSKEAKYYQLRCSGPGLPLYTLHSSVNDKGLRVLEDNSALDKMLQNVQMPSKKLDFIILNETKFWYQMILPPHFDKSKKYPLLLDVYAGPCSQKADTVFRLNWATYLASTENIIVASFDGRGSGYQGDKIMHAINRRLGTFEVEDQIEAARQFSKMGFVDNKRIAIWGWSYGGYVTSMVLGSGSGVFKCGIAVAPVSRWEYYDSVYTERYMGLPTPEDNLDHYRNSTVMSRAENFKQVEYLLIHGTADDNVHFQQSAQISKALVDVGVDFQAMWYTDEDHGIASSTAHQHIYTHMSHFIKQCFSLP
Source text: (§1) Results are from triplicates in at least two independent experiments.

[2] = target: T1, DPPIV
Target sequence in this assay (P27487 39-766 limits assumed): as above
Source text: as §1

[3] = target: T1, DPPIV; experiment: in vitro; details: plasma, pH 7.8
Target sequence in this assay (P27487 39-766 limits assumed): as above
Source text: as §1

[4] = target: T1, DPPIV; experiment: In vitro plasma stability of GLP-1 peptides secreted from human cells; type: in vitro ADME; parameters: human lymphocyte enriched plasma containing dipeptidylpeptidase activity; from tissue; host or cells: human lymphocyte enriched plasma; details: human lymphocyte enriched plasma, 37° C., 3 or 4 hours
Source text: HEK293 and hTERT-MSC cells were transiently transfected with constructs, encoding the heterologous stromelysin signal sequence, which is linked to GLP-1 variants encoding the following peptides: […]
Target sequence in this assay (P27487 whole entry): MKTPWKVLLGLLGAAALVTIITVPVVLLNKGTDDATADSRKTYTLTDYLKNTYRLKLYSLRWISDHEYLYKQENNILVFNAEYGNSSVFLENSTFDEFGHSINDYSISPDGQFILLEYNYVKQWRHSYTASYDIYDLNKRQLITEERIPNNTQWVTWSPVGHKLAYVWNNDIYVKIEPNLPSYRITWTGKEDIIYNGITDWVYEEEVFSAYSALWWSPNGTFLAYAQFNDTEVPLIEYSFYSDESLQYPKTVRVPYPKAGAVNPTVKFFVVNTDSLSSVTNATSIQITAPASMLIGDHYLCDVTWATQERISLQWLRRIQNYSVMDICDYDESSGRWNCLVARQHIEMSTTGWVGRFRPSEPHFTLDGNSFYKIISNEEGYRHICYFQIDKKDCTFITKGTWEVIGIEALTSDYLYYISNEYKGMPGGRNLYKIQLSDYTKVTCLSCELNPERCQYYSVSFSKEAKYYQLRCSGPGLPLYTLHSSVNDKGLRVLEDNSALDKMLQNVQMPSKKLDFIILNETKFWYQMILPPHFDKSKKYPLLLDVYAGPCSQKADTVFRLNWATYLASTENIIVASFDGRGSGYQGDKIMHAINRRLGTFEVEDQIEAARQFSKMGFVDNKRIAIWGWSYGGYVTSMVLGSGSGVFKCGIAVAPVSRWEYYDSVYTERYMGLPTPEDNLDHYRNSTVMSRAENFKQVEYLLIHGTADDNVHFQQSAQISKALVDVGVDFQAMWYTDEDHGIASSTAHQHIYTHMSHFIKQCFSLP

[5] = system: diabetic C57BL/KsJ@Rj-db (db/db) mice; experiment: Dose-efficacy study in diabetic mice; type: in vivo
Description: A sixth group was treated with saline only. 7 animals were treated per group. Blood glucose was determined from tail bleeds directly before, 1 hour and 4 hours after injection. […] For every test substance a graph was prepared with the percentage difference of the blood glucose in relation to the start value for the different concentrations. […] Both models are sigmoidal fit models suitable for dose response evaluation.

[6] = system: C57BL/KsJ@Rj-db (db/db) mice; experiment: Long-term treatment of db/db mice; type: in vivo
Description: Blood glucose was measured from a tail bleed after a 12-hour overnight fast 18 hours after s.c. injection of the test substances. […] The serum was analysed for insulin with the Insulin Mouse Ultrasensitive ELISA (Cat.#EIA-3440, DRG).

[7] = system: BALB/c mice; experiment: In vivo study, immunogenicity; details: 5 repeated injections, 70 μg peptide/dose, i.v., over 22 d
Description: The trial was done in BALB/c mice receiving 5 repeated injections (70 μg peptide/dose, i.v.) over 22 d (n=5).
Spleens of the treated and control mice were explanted, T-cells isolated and stimulated with increasing amounts of antigene. Proliferative recall response is measured.

[8] = system: type II diabetic mice (C57BL/Ks-Lepr^db/db); experiment: In vivo bioactivity, blood glucose in type II diabetic mice; details: 5 μg peptide s.c. twice a day, day 2, 4, 7, 10, after overnight fast
Description: 11-week-old type II diabetic mice (C57BL/Ks-Lepr^db/db, Harlan) were treated with 5 μg peptide by subcutaneous injection twice a day at 9 a.m. and 5 p.m. (n=5 per group). Blood glucose was measured before (day 0) and after treatment with GLP^CM peptides (Day 2, 4, 7, 10) at 10 a.m. after an overnight fastening period. Data were presented in relation to blood glucose levels measured at day 0.

[9] = In vitro human plasma stability of GLP-1CM peptides; details: 20 ng/ml, 37° C., 3 hours, GLP-1 (Active) ELISA
Source text: Dipeptidylpeptidase activity of the plasma was inhibited by an DPP-IV inhibitor (#DPP4, Biotrend).

CC[C@H](C)[C@H](NC(=O)[C@H](Cc1ccccc1)NC(=O)[C@H](CCC(=O)O)NC(=O)[C@H](CCCCN)NC(=O)[C@H](C)NC(=O)[C@H](C)NC(=O)[C@H](CCC(N)=O)NC(=O)CNC(=O)[C@H](CCC(=O)O)NC(=O)[C@H](CC(C)C)NC(=O)[C@H](Cc1ccc(O)cc1)NC(=O)[C@H](CO)NC(=O)[C@H](CO)NC(=O)[C@@H](NC(=O)[C@H](CC(=O)O)NC(=O)[C@H](CO)NC(=O)[C@@H](NC(=O)[C@H](Cc1ccccc1)NC(=O)[C@@H](NC(=O)CNC(=O)[C@H](CCC(=O)O)NC(=O)[C@H](C)NC(=O)[C@@H](N)Cc1c[nH]cn1)[C@@H](C)O)[C@@H](C)O)C(C)C)C(=O)N[C@@H](C)C(=O)N[C@@H](Cc1c[nH]c2ccccc12)C(=O)N[C@@H](CC(C)C)C(=O)N[C@H](C(=O)N[C@@H](CCCCN)C(=O)NCC(=O)N[C@@H](CCCNC(=N)N)C(=O)NCC(=O)N[C@@H](CCCNC(=N)N)C(=O)N[C@@H](CCCNC(=N)N)C(=O)N[C@@H](CC(=O)O)C(=O)N[C@@H](Cc1ccccc1)C(=O)N1CCC[C@H]1C(=O)O)C(C)C [CM3-ANA06, reference compound]
remaining at 9 h, 1 μM [1]: 11% | DT80 ([1]; 37° C.): 0.9 h

CC[C@H](C)[C@H](NC(=O)[C@H](Cc1ccccc1)NC(=O)[C@H](CCC(=O)O)NC(=O)[C@H](CCCCN)NC(=O)[C@H](C)NC(=O)[C@H](C)NC(=O)[C@H](CCC(N)=O)NC(=O)CNC(=O)[C@H](CCC(=O)O)NC(=O)[C@H](CC(C)C)NC(=O)[C@H](Cc1ccc(O)cc1)NC(=O)[C@H](CO)NC(=O)[C@H](CO)NC(=O)[C@@H](NC(=O)[C@H](CC(=O)O)NC(=O)[C@H](CO)NC(=O)[C@@H](NC(=O)[C@H](Cc1ccccc1)NC(=O)[C@@H](NC(=O)CNC(=O)[C@H](CCC(=O)O)NC(=O)[C@H](C)NC(=O)[C@@H](N)Cc1c[nH]cn1)[C@@H](C)O)[C@@H](C)O)C(C)C)C(=O)N[C@@H](C)C(=O)N[C@@H](Cc1c[nH]c2ccccc12)C(=O)N[C@@H](CC(C)C)C(=O)N[C@H](C(=O)N[C@@H](CCCCN)C(=O)NCC(=O)N[C@@H](CCCNC(=N)N)C(=O)NCC(=O)N[C@@H](CCCNC(=N)N)C(=O)N[C@@H](CCCNC(=N)N)C(=O)N[C@@H](CC(=O)O)C(=O)N[C@@H](Cc1ccccc1)C(=O)N1CCC[C@H]1C(=O)N[C@@H](CCC(=O)O)C(=O)N[C@@H](CCC(=O)O)C(=O)N[C@H](C(=O)N[C@@H](C)C(=O)O)C(C)C)C(C)C [CM3-ANA07]
DT80 [2]: 2.0 h | remaining at 9 h, 1 μM [3]: 37%

GLP1(7-37)-IP2-GLP1(7-37) [compound 3]
resistance to DPP-IV degradation [4]: nearly fully stabilised to DPP-IV degradation in vitro

GLP-1(7-37) [compound 1, reference compound]
resistance to DPP-IV degradation [4]: inactivated by DPP-IV in a similar way to synthetic GLP-1

GLP-1(7-37)-IP2-RR-GLP1(7-37) [CM1]
fall in plasma glucose @1 h ([5]; 1 hour after single s.c. injection of 1.1-3.0 nmol peptide, versus control): 50% ± 14%@1 h | fall in plasma glucose @4 h ([5]; 4 hours after single s.c. injection of 1.1-3.0 nmol peptide, versus control): 0%@4 h | ED50 (plasma glucose) ([5]; single s.c. dose, percentage decrease of blood glucose at 1 h, sigmoidal fit): 0.61 μg/mouse | fasted blood glucose level ([6]; 12-hour overnight fast, 18 h after peptide injection): reduced | non fasted blood glucose level compared to control ([6]; 1 h after s.c. peptide injection, 24 nmol/kg): 55% | food consumption ([6]; weekly, 122 day treatment period, compared to the control, p<0.001): significantly lower | toxicity [7]: no toxicity | anti-hyperglycemia effect (blood glucose in relation to day 0) [8]: Best results | anti-hyperglycemia effect (blood glucose in relation to day 0) ([8]; listed as SEQ ID No.:6): anti-hyperglycemia effect

HAEGTFTSDVSSYLEGQAAKEFIAWLVKGRGAADAAAAVAIAAALG [CM3-ANA04]
remaining at 9 h, 1 μM [1]: 65% | DT80 ([1]; 37° C.): 4.7 h

HAEGTFTSDVSSYLEGQAAKEFIAWLVKGRGAADFPEEVAIAEELG [CM3-ANA01]
DT80 [2]: 12.5 h | in vitro plasma stability, comparison [2]: higher plasma stability than CM3

HAEGTFTSDVSSYLEGQAAKEFIAWLVKGRGRRDAAAAVAIAEELG [CM3-ANA03]
in vitro plasma stability, comparison ([1]; 37° C.): strongly reduced stability compared to CM3 | remaining at 9 h, 1 μM [1]: 30% | DT80 ([1]; 37° C.): 1.6 h

HAEGTFTSDVSSYLEGQAAKEFIAWLVKGRGRRDFAEEVAIAEELG [CM3-ANA02]
remaining at 9 h, 1 μM [1]: 65% | DT80 ([1]; 37° C.): 4.5 h

HAEGTFTSDVSSYLEGQAAKEFIAWLVKGRGRRDFPEEVAIAEELG [CM3]
stability in human plasma in vitro [9]: significantly stabilized | DT80 ([1]; 37° C.): 4.4 h

HAEGTFTSDVSSYLEGQAAKEFIAWLVKGRGRRDFPEEVAIAEELGRRHAC [CM3-ANA09]
DT80 [2]: 4.2 h | remaining at 9 h, 1 μM [3]: 60%

B1: GLP-1(7-37)-IP2-RR-GLP2 (peptide)
chain: HAEGTFTSDVSSYLEGQAAKEFIAWLVKGRGRRDFPEEVAIAEELGRRHADGSFSDEMSTILDNLATRDFINWLIQTKITDKK
stability in human plasma in vitro [9]: significantly stabilized | anti-hyperglycemia effect (blood glucose in relation to day 0) [8]: anti-hyperglycemia effect
